Four compounds from patent US11478558B2, “Prostate-specific membrane antigen targeted high-affinity agents for endoradiotherapy of prostate cancer” (The Johns Hopkins University, priority 2017, dated 2022) can be followed below.

Where two headings read alike, the source gives them in different places.

The test system of this assay is PSMA(+) PC3 PIP cells. Kind of assay: Cell uptake, cell surface binding and internalization in PSMA(+) PC3 PIP cells. The class given is cell-based, human.

As for `O=C(O)CC[C@H](NC(=O)N[C@@H](CCCCN(Cc1ccc(Br)cc1)C(=O)CCCCNC(=O)CN1CCN(CC(=O)O)CCN(CC(=O)O)CCN(CC(=O)O)CC1)C(=O)O)C(=O)O` [Ligand L1, (14S,18S)-9-(4-Bromobenzyl)-2,8,16-trioxo-1-(4,7,10-tris(carboxymethyl)-1,4,7,10-tetraazacyclododecan-1-yl)-3,9,15,17-tetraazaicosane-14,18,20-tricarboxylic acid], the “Specific Cell Surface Binding” value came to 36.49 ± 0.50 % IA/10^6 cells and the specific internalization worked out at 23.68 ± 0.16 % IA/10^6 cells.
For `O=C(O)CC[C@H](NC(=O)N[C@@H](CCCCNC(=O)CCCCCCC(=O)NCCCC[C@H](NC(=O)[C@@H](CCCCNC(=O)CCCc1ccc(I)cc1)NC(=O)CN1CCN(CC(=O)O)CCN(CC(=O)O)CCN(CC(=O)O)CC1)C(=O)O)C(=O)O)C(=O)O` [Ligand L14, (3S,7S,26S,29R)-38-(4-iodophenyl)-5,13,20,28,35-pentaoxo-29-(2-(4,7,10-tris(carboxymethyl)-1,4,7,10-tetraazacyclododecan-1-yl)acetamido)-4,6,12,21,27,34-hexaazaoctatriacontane-1,3,7,26-tetracarboxylic acid], the “Specific Cell Surface Binding” value was found to be 53.0 ± 1.3 % IA/10^6 cells.
For the compound `O=C(O)CC[C@H](NC(=O)N[C@@H](CCCCNC(=O)CCCCCCC(=O)NCCCC[C@@H](NC(=O)[C@@H](Cc1ccccc1)NC(=O)[C@@H](Cc1ccc(O)c(I)c1)NC(=O)CCC(C(=O)O)N1CCN(CC(=O)O)CCN(CC(=O)O)CCN(CC(=O)O)CC1)C(=O)O)C(=O)O)C(=O)O` (stereo partly shown) [PSMA I&T, reference compound], for the setting “Table 6”, the “Specific Cell Surface Binding” value is given as 64.5 ± 2.3 % IA/10^6 cells and the specific internalization turned out to be 21.1 ± 0.7 % IA/10^6 cells.
Turning to `O=C(O)CC[C@H](NC(=O)N[C@@H](CCCCNC(=O)[C@H](Cc1ccc2ccccc2c1)NC(=O)[C@H]1CC[C@H](CNC(=O)CN2CCN(CC(=O)O)CCN(CC(=O)O)CCN(CC(=O)O)CC2)CC1)C(=O)O)C(=O)O` [PSMA-617, reference compound], the “Specific Cell Surface Binding” value came to 44.6 ± 1.0 % IA/10^6 cells and the specific internalization is 21.1 ± 0.9 % IA/10^6 cells.
